Legend:
[1] = tested on: mouse embryonic stem cell line E14Tg2a; test: tert-butyl hydroperoxide (tBHP) challenge of mES cells, MTT viability assay; assay type: cell-based
Protocol: The mouse embryonic stem cell line E14Tg2a was maintained in a pluripotent state in knockout (KO) DMEM supplemented with leukaemia inhibitory factor (LIF), 15% (v/v) knockout serum replacement, 0.1 mM MEM non-essential amino acids, 2 mM 1-glutamine and 140 μM 2-mercaptoethanol in tissue culture flasks coated with 0.1% (w/v) gelatin.
(§1) mES cells were plated into a 0.1% (w/v) gelatin coated 96-well tissue culture plate at a density of 1.5×10^4 cells per well. The cells were cultured at 37° C. in an atmosphere of 5% CO2 for 20-24 hours before the addition of AO3003, 30 minutes prior to the onset of the tert-butyl hydroperoxide (tBHP) challenge. The cells were incubated with tBHP for 90 minutes at 37° C. (5% CO2) before 20 μl 5 mg/ml 3-(4,5-Dimethyl-2-thiazolyl)-2,5-diphenyl-2H-tetrazolium bromide (MTT) was added to each of the treatment wells. The cells were incubated for a further 3 hours at 37° C. (5% CO2) before all the supernatant was removed from the cells and the insoluble MTT formazan dye, produced by the reduction of MTT by viable cells, was solubilised in 200 μl dimethyl sulfoxide (DMSO). The absorbance of the resulting solution was measured at 540 nm and was proportional to the number of viable mES cells remaining after the tBHP challenge.
as §1, with “of 7.5×10^3” for “of 1.5×10^4”, “AO3003, 20 hours” for “AO3003, 30 minutes”, “insoluble MIT” for “insoluble MTT”

[2] = tested on: mouse β-cell insulinoma line MIN-6; test: tert-butyl hydroperoxide (tBHP) challenge of MIN-6 cells, MTT viability assay; assay type: cell-based; settings: compound added 30 minutes prior to tBHP, FIG. 3
Protocol: The mouse β-cell insulinoma line MIN-6 was maintained in high glucose DMEM supplemented with 15% heat-inactivated foetal bovine serum (FBS) and 70 μM 2-mercaptoethanol.
as §1, with “MIN-6 cells were” for “mES cells were”, “into a 96-well tissue” for “into a 0.1% (w/v) gelatin coated 96-well tissue”, “density of 2.0×10^4 cells per” for “density of 1.5×10^4 cells per”, “tBHP for 30 minutes at” for “tBHP for 90 minutes at”, “reduction of MIT by viable” for “reduction of MTT by viable”, “tBHP challenge. DMEM is the control viability of cells without peroxide or tBHP.” for “tBHP challenge.”

SMILES: O=c1c(O)c(-c2cc(O)c(O)c(O)c2)oc2cc(C3CCCCC3)ccc12 [AO3003]
- reversal of oxidative stress-induced loss of viability ([1]; 2 μM, compound added 20 hours prior to tBHP challenge, MTT, FIG. 2): significantly reverses oxidative stress-induced loss of viability
- toxicity (control cell viability without tBHP) ([1]; cell viability at 24 h after 0, 1 and 2 μM exposure): not toxic
- period the compound remains bioprotective once incorporated into the cell ([1]; mES cells, tBHP challenge, Experiment 2): > 24 h
- protection against oxidative stress ([1]; mouse embryonic stem cell line, tBHP, summary of Experiments 1 and 2): protects against oxidative stress
- protection against oxidative stress [2]: protects against oxidative stress

Reference: patent US9359323B2, “Compound” (priority 2010, dated 2016)
